target: T1, COX-1 (ovine) (Ovis aries, UniProt P05979); experiment: 12-HHT formation from arachidonic acid, HPLC; type: biochemical
T1 sequence (P05979 25-600): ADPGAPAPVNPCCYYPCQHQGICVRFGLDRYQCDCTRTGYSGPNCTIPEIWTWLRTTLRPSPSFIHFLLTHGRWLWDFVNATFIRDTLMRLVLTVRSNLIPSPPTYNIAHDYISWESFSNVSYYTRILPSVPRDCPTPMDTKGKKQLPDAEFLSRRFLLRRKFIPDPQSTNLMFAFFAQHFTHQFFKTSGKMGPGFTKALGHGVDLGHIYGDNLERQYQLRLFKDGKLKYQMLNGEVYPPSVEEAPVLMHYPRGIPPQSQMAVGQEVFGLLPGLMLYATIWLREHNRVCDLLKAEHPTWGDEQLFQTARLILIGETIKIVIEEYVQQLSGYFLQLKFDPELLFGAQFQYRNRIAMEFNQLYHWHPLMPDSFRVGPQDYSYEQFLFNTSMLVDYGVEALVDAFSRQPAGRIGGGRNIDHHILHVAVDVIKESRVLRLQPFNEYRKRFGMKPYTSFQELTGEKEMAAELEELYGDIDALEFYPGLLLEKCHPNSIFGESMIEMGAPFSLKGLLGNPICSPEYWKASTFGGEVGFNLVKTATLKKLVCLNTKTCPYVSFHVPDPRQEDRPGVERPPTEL

Row | IC50 | SMILES
1 | > 30 µM | CCCCCC(=O)Cc1cc(O)cc2c1C(=O)Oc1cc(O)c(C(=O)O)c(CCCCC)c1O2 [compound 2, physodic acid]
2 | > 30 µM | CCCCCc1cc(OC(=O)c2c(O)cc(OC)cc2CCCCC)cc(O)c1C(=O)O [compound 8, perlatolic acid]
3 | > 30 µM | CCCCCC(=O)Cc1cc(O)cc(O)c1C(=O)Oc1cc(O)c(C(=O)O)c(CCCCC)c1 [compound 9, olivetoric acid]
